# Assay results taken from patent publication US11306089B2, “Gamma-carboline compounds for the detection of Tau aggregates” (AC IMMUNE SA, priority 2018, dated 2022).
# pIC50: −log10 of the molar value. Marks after values point to notes of the source that are not given here.
# Experiments:
# MAO-B = target: T1, MAO-B (Homo sapiens, UniProt P27338); assay: Binding affinity to MAO-B in human HC brain homogenate (3H-deprenyl competition); design: key to Low affinity to MAO B (IC50 in human HC brain homogenate), grade: − poor; ∘ moderate; + good; ++ very good; +++ excellent; conditions: for pIC50: 3H-deprenyl competition
# T1 construct: 20 μg of human brain homogenate (without AD pathology); from tissue; host or cells: human brain homogenate without AD pathology
# T1 sequence (P27338 1-520): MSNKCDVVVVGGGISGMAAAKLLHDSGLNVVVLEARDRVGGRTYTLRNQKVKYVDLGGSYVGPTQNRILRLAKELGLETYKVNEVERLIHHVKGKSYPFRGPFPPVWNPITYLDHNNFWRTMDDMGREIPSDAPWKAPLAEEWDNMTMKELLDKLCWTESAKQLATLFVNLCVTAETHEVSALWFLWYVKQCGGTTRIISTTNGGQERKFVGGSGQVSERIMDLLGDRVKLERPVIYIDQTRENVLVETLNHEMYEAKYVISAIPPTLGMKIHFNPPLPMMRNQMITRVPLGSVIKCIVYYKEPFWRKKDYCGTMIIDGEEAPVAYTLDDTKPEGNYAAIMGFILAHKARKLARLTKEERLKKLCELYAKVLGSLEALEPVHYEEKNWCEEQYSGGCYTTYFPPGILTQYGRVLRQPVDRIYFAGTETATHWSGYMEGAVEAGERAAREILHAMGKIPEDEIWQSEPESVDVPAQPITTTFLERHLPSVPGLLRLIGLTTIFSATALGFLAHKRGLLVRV
# Protocol: Determination of the Binding Affinity to MAO-B in HC Brain Homogenate
# (§1) 20 μg of human brain homogenate (without AD pathology) was incubated with a dilution series of each test compound (1000 to 0.06 nM) in the presence of 700 Bq of ^3H-labeled MAO-B binder Deprenyl. The samples were shaken at 110 rpm for 60 min at 37° C. Samples were then filtered through GF/B 96 well filter plates and washed twice with 200 μL assay buffer (PBS containing 0.1% BSA and 2% DMSO). Thereafter, 40 μL Szintillation cocktail was added and the filter plates were sealed. The counts were then counted using a TopCount (Perkin Elmer). Non-specific signal was determined with samples containing ^3H-deprenyl in the presence of assay buffer without brain substrate and competitor. Specific binding was calculated by subtracting the non-specific signal from the measured samples signal. The unblocked ^3H-deprenyl signal was defined as total binding. IC50 values were calculated by Prism V7 (GraphPad) setting total binding to 100%.
# MAO-A [1] = target: T2, MAO-A (Mus musculus, UniProt Q64133); assay: Binding affinity to MAO-A in mouse whole brain homogenate (3H-Harmine competition); design: key to Low affinity to MAO A (IC50 in mouse brain homogenate), grade: − poor; ∘ moderate; + good; ++ very good; +++ excellent; conditions: for fold higher IC50 than compound 18F-1, MAO A in whole mouse brain homogenate: ratio to 18F-1
# T2 construct: 20 μg of mouse whole brain or human brain homogenate; from tissue; host or cells: mouse whole brain homogenate
# T2 sequence (Q64133 1-526): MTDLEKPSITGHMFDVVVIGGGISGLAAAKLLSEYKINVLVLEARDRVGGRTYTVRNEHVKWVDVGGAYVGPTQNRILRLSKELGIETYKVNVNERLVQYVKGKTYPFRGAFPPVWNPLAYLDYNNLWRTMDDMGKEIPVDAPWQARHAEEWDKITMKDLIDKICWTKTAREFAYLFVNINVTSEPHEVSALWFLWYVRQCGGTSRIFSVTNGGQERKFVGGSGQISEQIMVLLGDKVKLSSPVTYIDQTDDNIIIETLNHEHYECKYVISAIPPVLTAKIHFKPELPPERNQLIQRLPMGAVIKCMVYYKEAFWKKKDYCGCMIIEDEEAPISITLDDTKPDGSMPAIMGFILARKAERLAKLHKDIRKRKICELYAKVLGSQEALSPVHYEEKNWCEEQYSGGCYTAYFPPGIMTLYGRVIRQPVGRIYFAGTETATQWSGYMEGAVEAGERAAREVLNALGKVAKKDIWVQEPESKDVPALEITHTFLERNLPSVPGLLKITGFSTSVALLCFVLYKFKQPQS
# Protocol: (§2) Determination of the Binding Affinity to MAO-A in HC Brain Homogenate
# as §1, with “μg of mouse whole brain or human brain” for “μg of human brain”, “(without AD pathology, HC) was incubated” for “(without AD pathology) was incubated”, “of ^3H-labeled MAO-A binder Harmine.” for “of ^3H-labeled MAO-B binder Deprenyl.”, “MAO-A binder Harmine. The samples” for “MAO-B binder Deprenyl. The samples”, “samples containing ^3H-Harmine in the” for “samples containing ^3H-deprenyl in the”, “The unblocked ^3H-Harmine signal was” for “The unblocked ^3H-deprenyl signal was”
# [2] = target: Tau in human Alzheimer disease brain homogenate (Homo sapiens, UniProt P10636); assay: Competition binding to Tau in AD brain homogenate (18F-labeled Tau binder); design: key to High affinity to Tau (IC50 in AD brain homogenate), grade: − poor; ∘ moderate; + good; ++ very good; +++ excellent; conditions: for pIC50 / High affinity to Tau (IC50 in AD brain homogenate), grade: non-radioactive fluorine-19 derivatives
# Protocol: Determination of Binding in AD and Healthy Control Brain Homogenates
# 20 μg of human Alzheimer disease brain homogenate was incubated with a dilution series of each test compound (1000 to 0.06 nM) in the presence of 800 Bq of ^18F-labeled Tau binder. The samples were shaken at 110 rpm for 45 min at 37° C. Samples were then filtered through GF/B 96 well filter plates and washed twice with 300 μL assay buffer (PBS containing 0.1% BSA and 2% DMSO). Thereafter, filter plates were sealed and a Fuji Film Imaging Plate (BAS-SR2025) was placed on top. The imaging plate was analyzed after overnight exposition using a Fuji Film BAS-5000. Non-specific signal was determined with samples containing ^18F-labeled Tau-reference binder in the presence of assay buffer without brain substrate and competitor. Specific binding was calculated by subtracting the non-specific signal from the measured samples signal. The unblocked ^18F-labeled Tau-binder signal was defined as total binding. IC50 values were calculated by Prism V7 (GraphPad) setting total binding to 100%.
# [3] = target: amyloid-beta in human Alzheimer disease brain homogenate (Homo sapiens, UniProt P05067); assay: Binding affinity to amyloid-beta in AD brain homogenate (3H-PIB competition); design: key to Low affinity to amyloid-beta (IC50 in AD brain homogenate), grade: − poor; ∘ moderate; + good; ++ very good; +++ excellent; conditions: non-radioactive fluorine-19 derivatives; for pIC50: human AD brain homogenate
# Protocol: Determination of the Binding Affinity to Amyloid-Beta in AD Brain Homogenate 20 μg of human Alzheimer disease brain homogenate was incubated with a dilution series of each test compound (1000 to 0.06 nM) in the presence of 700 Bq of ^3H-labeled beta-amyloid binder PIB. The samples were shaken at 110 rpm for 60 min at 37° C. Samples were then filtered through GF/B 96 well filter plates and washed twice with 200 μL assay buffer (PBS containing 0.1% BSA and 2% DMSO). Thereafter, 40 μL Szintillation cocktail was added and the filter plates were sealed. The counts were then counted using a TopCount (Perkin Elmer). Non-specific signal was determined with samples containing ^3H-labeled beta-amyloid binder in the presence of assay buffer without brain substrate and competitor. Specific binding was calculated by subtracting the non-specific signal from the measured samples signal. The unblocked ^3H-labeled beta-amyloid binder signal was defined as total binding. IC50 values were calculated by Prism V7 (GraphPad) setting total binding to 100%.
# MAO-A [4] = target: T3, MAO-A (Homo sapiens, UniProt P21397); assay: Binding affinity to MAO-A in human HC brain homogenate (3H-Harmine competition); design: key to Low affinity to MAO A (IC50 in human HC brain homogenate), grade: − poor; ∘ moderate; + good; ++ very good; +++ excellent; conditions: for pIC50: human control brain homogenate, 3H-Harmine competition
# T3 construct: human brain homogenate (without AD pathology, HC); from tissue; host or cells: human brain homogenate without AD pathology (HC)
# T3 sequence (P21397 1-527): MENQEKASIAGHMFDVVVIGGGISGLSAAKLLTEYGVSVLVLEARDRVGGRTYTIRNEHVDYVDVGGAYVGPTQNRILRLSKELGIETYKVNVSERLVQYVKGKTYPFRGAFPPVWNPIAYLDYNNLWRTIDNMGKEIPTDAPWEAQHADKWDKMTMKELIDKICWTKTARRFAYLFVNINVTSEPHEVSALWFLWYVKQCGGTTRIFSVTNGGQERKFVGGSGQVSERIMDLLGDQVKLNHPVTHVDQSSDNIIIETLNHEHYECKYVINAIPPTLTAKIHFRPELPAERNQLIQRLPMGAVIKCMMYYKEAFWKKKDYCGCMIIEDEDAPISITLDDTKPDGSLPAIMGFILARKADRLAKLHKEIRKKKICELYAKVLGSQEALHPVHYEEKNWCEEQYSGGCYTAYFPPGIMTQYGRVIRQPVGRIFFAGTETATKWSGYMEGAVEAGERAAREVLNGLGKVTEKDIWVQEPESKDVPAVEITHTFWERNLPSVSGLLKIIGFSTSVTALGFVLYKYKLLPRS
# Protocol: as §2
# as §1, with “μg of mouse whole brain or human brain” for “μg of human brain”, “(without AD pathology, HC) was incubated” for “(without AD pathology) was incubated”, “of ^3H-labeled MAO-A binder Harmine.” for “of ^3H-labeled MAO-B binder Deprenyl.”, “MAO-A binder Harmine. The samples” for “MAO-B binder Deprenyl. The samples”, “samples containing ^3H-Harmine in the” for “samples containing ^3H-deprenyl in the”, “The unblocked ^3H-Harmine signal was” for “The unblocked ^3H-deprenyl signal was”
# [5] = Tracer signal in mouse brain homogenate compared to AD brain homogenate; format: binding; design: key to High signal to noise (% signal intensity in mouse brain homogenate compared to tracer signal in AD brain homogenate), grade: − poor; ∘ moderate; + good; ++ very good; +++ excellent; conditions: radioactive fluorine-18 derivatives
# [6] = target: T4, aggregated recombinant human K18 fibrils (Homo sapiens, UniProt P10636); assay: Binding affinity to K18 Tau aggregates (3H-labeled Tau binder competition); design: key to High affinity to Tau (IC50 using K18 Tau aggregates), grade: − poor; ∘ moderate; + good; ++ very good; +++ excellent; conditions: non-radioactive fluorine-19 derivatives; for pIC50: read-out: IC50 using K18 Tau aggregates
# T4 construct: aggregated recombinant human K18 fibrils
# Protocol: Determination of the Binding Affinity to K18 Tau Aggregates
# 200 ng of aggregated recombinant human K18 fibrils were incubated with a dilution series of each test compound (1000 to 0.06 nM) in the presence of 3 nM of ^3H-labeled Tau binder. The samples were shaken at 110 rpm for 60 min at 37° C. Samples were then filtered through GF/B 96 well filter plates and washed twice with 200 μL assay buffer (PBS containing 0.1% BSA and 2% DMSO). Thereafter, 40 μL of MicroScint 40 was added to each well of the filter plate. Filter plates were sealed and then placed shaking at 110 rpm at 37° C. for 15 min. Measurement was done by TopCount NXT HTS (PerkinElmer). Non-specific signal was determined with samples containing ^3H-labeled Tau binder in the presence of 2.5 μM unlabeled Tau-reference binder and K18 fibrils. Specific binding was calculated by subtracting the non-specific signal from the measured samples signal. The unblocked ^3H-labeled Tau-binder signal was defined as total binding. IC50 values were calculated by Prism V7 (GraphPad) setting total binding to 100%.
# [7] = Tracer signal in HC brain homogenate compared to AD brain homogenate; format: binding, human; design: key to Signal to noise (% signal intensity in HC brain homogenate compared to tracer signal in AD brain homogenate), grade: − poor; ∘ moderate; + good; ++ very good; +++ excellent
# [8] = mouse brain homogenate, 3H-Harmine competition
# [9] = radioactive fluorine-18 derivatives
# Sequence of Tau in human Alzheimer disease brain homogenate (P10636 623-708 limits assumed): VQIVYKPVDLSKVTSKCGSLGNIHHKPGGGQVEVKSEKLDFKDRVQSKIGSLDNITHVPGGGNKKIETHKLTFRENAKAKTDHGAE
# Sequence of amyloid-beta in human Alzheimer disease brain homogenate (P05067 672-711 limits assumed): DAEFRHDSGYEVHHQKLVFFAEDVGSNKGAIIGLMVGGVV
# T4 sequence (P10636 561-685 limits assumed): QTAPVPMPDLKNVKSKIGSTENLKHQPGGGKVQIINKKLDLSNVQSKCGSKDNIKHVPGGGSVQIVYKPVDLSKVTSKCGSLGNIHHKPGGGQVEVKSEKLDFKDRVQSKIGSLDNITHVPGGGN
pIC50 (MAO-B; human HC brain homogenate),pIC50 (MAO-A [1]; [8]),pIC50 ([2]; human AD brain homogenate),pIC50 [3],pIC50 (MAO-A [4]),"Low affinity to MAO A (IC50 in mouse brain homogenate), grade (MAO-A [1]; mouse brain homogenate)","fold higher IC50 than compound 18F-1, MAO A in whole mouse brain homogenate (MAO-A [1])","High affinity to Tau (IC50 in AD brain homogenate), grade [2]",pIC50 [6],Compound,further results
6.11,7.29,> 8.70,< 6.00,7.43,–,–,–,–,Fc1cc(-c2ccc3c(c2)[nH]c2ccncc23)ccn1 [F-2],–
–,–,–,–,–,–,–,–,–,Fc1cc(-c2nc3[nH]c4ccncc4c3s2)ccn1 [F-3],"MAO-A binding affinity (in words) (MAO-A [1]; [8]): Low affinity; affinity towards tau (in words) ([2]; competition assay, human AD brain homogenate): good affinity"
–,< 6.00,7.87,–,–,+++,> 100 fold,+,–,[18F]c1cc(-c2cc3[nH]c4ccncc4c3s2)ccn1 [^18F-3],–
6.11,7.29,> 8.70,< 6.00,7.43,∘,11 fold,+++,8.52,[18F]c1cc(-c2ccc3c(c2)[nH]c2ccncc23)ccn1 [^18F-2],"Low affinity to MAO B (IC50 in human HC brain homogenate), grade (MAO-B; human HC brain homogenate): ++; fold higher IC50 than compound 18F-1, MAO B in HC brain homogenate (MAO-B; ratio to 18F-1): > 10 fold; % signal intensity in mouse brain homogenate compared to tracer signal in AD brain homogenate [5]: (57%); High signal to noise (% signal intensity in mouse brain homogenate compared to tracer signal in AD brain homogenate), grade [5]: +; High affinity to Tau (IC50 using K18 Tau aggregates), grade ([6]; K18 Tau aggregates): ++; Low affinity to amyloid-beta (IC50 in AD brain homogenate), grade ([3]; AD brain homogenate): +++^a); less relative signal in HC brain homogenate ratio than 18F-1 ([7]; binding in AD brain homogenate and HC brain homogenate, difference to 18F-1): 19%; % signal intensity in HC brain homogenate compared to tracer signal in AD brain homogenate [7, 9]: (66%); Signal to noise (% signal intensity in HC brain homogenate compared to tracer signal in AD brain homogenate), grade [7, 9]: ∘; Low affinity to MAO A (IC50 in human HC brain homogenate), grade (MAO-A [4]; human HC brain homogenate): ∘; fold higher IC50 than compound 18F-1, MAO A in human control brain homogenate (MAO-A [4]; ratio to 18F-1): 6.3 fold"
7.11,8.34,> 8.70,< 6.00,8.23,–,–,–,7.71,"[18F]c1ccc(-c2ccc3c(c2)[nH]c2ccncc23)cn1 [^18F-1, reference compound]",–
7.11,8.34,> 8.70,< 6.00,8.23,–,–,–,–,"Fc1ccc(-c2ccc3c(c2)[nH]c2ccncc23)cn1 [F-1, reference compound]",–
